One may read the MIC as the smallest concentration in the dilution series that meets the test's criterion for growth inhibition. Higher therefore signals a less susceptible organism.

≈ marks a conversion by molar mass, not a printed value. A value given as a limit tells only on which side of the number the result lay.

Assay [1] relates to Acinetobacter haemolyticus. The assay can be described thus: Antibacterial activity against Acinetobacter haemolyticus expressing carbapenemase-encoding blaOXA-40 gene by Etest method. Format: functional.
The test system of assay [2] is Acinetobacter baumannii. Briefly: Antibacterial activity against Acinetobacter baumannii A clone expressing carbapenemase-encoding blaOXA-40 gene by Etest method. Format: functional.
Assay [3] deals with Acinetobacter baumannii. Briefly: Antibacterial activity against Acinetobacter baumannii B clone by Etest method. Format: functional.
The subject of assay [4] is Acinetobacter baumannii. The assay can be described thus: Antibacterial activity against Acinetobacter baumannii C clone by Etest method. Format: functional.
Assay [5] relates to Acinetobacter baumannii. Briefly: Antibacterial activity against Acinetobacter baumannii A clone expressing carbapenemase-encoding blaOXA-40 gene by agar dilution method. Format: functional, organism-based. (In agar dilution the substance is mixed into plates at graded concentrations.)
Assay [6] deals with Acinetobacter baumannii. Briefly: Antibacterial activity against Acinetobacter baumannii B clone by agar dilution method. Format: functional, organism-based.
The test system of assay [7] is Acinetobacter baumannii. Briefly: Antibacterial activity against Acinetobacter baumannii C clone by agar dilution method. Format: functional, organism-based.
Assay [8] deals with Acinetobacter haemolyticus. Briefly: Antibacterial activity against Acinetobacter haemolyticus expressing carbapenemase-encoding blaOXA-40 gene by agar dilution method. Format: functional, organism-based.

Consider `CO/N=C(\C(=O)N[C@@H]1C(=O)N2C(C(=O)[O-])=C(C[N+]3(C)CCCC3)CS[C@H]12)c1csc(N)n1`, for which the MIC in assay [1] was 4 µg/mL (≈ 8.32 µM).

On to `CC1(C)S[C@@H]2[C@H](NC(=O)[C@H](N)c3ccc(O)cc3)C(=O)N2[C@H]1C(=O)O` [AMOXICILLIN], for which the minimum inhibitory concentration (MIC) was at least 256 µg/mL in assay [2], above 64 µg/mL in assay [3], 128 µg/mL (≈ 350 µM) in assay [4] and at least 256 µg/mL in assay [1].

Compound `C[C@H]1[C@H](NC(=O)/C(=N\OC(C)(C)C(=O)O)c2csc(N)n2)C(=O)N1S(=O)(=O)O` [AZTREONAM] gave an MIC in assay [1] of 4 µg/mL (≈ 9.19 µM).

With `CO[C@@]1(NC(=O)Cc2cccs2)C(=O)N2C(C(=O)O)=C(COC(N)=O)CS[C@@H]21` [CEFOXITIN], the MIC in assay [2] was at least 256 µg/mL; in assay [3], at least 256 µg/mL; in assay [4] it was at least 256 µg/mL; in assay [1] it was 32 µg/mL (≈ 74.9 µM).

With `CC(C)(O/N=C(\C(=O)N[C@@H]1C(=O)N2C(C(=O)[O-])=C(C[n+]3ccccc3)CS[C@H]12)c1csc(N)n1)C(=O)O` [CEFTAZIDIME], the minimum inhibitory concentration (MIC) was 256 µg/mL (≈ 468 µM) in assay [2], 4 µg/mL (≈ 7.32 µM) in assay [3], 4 µg/mL (≈ 7.32 µM) in assay [4] and 4 µg/mL (≈ 7.32 µM) in assay [1].

As to `C[C@@H](O)[C@H]1C(=O)N2C(C(=O)O)=C(SCCNC=N)C[C@H]12` [IMIPENEM ANHYDROUS], the minimal inhibitory concentration (MIC) in assay [2] is at least 32 µg/mL; in assay [3] it was at least 32 µg/mL; in assay [4], 32 µg/mL (≈ 107 µM); in assay [1], at least 32 µg/mL.

In the case of `C[C@@H](O)[C@H]1C(=O)N2C(C(=O)O)=C(S[C@@H]3CN[C@H](C(=O)N(C)C)C3)[C@H](C)[C@H]12` [MEROPENEM], the minimal inhibitory concentration (MIC) is at least 32 µg/mL in assay [2], 2 µg/mL (≈ 5.22 µM) in assay [3], 4 µg/mL (≈ 10.4 µM) in assay [4] and at least 32 µg/mL in assay [1].

As for `CCN1CCN(C(=O)N[C@@H](C(=O)N[C@@H]2C(=O)N3[C@@H]2SC(C)(C)[C@@H]3C(=O)O)c2ccccc2)C(=O)C1=O` [PIPERACILLIN], the MIC in assay [2] is at least 256 µg/mL; in assay [3], at least 256 µg/mL; in assay [4], 64 µg/mL (≈ 124 µM); in assay [1], at least 256 µg/mL.

With `CC1(C)S[C@@H]2[C@H](NC(=O)[C@H](C(=O)O)c3ccsc3)C(=O)N2[C@H]1C(=O)O` [TICARCILLIN], the MIC in assay [2], in assay [3], in assay [4] and in assay [1] was at least 256 µg/mL each time.

As to COLISTIN, the MIC in assay [5] is above 16 µg/mL; in assay [6] it was above 16 µg/mL; in assay [7], 2 µg/mL; in assay [8], 4 µg/mL.

The values above are taken from ChEMBL document CHEMBL1154408, “Molecular epidemiology of imipenem-resistant Acinetobacter haemolyticus and Acinetobacter baumannii isolates carrying plasmid-mediated OXA-40 from a Portuguese hospital” (2007).
